Results published in US10376520B2, “Methods for the treatment of cardiovascular disorders” (Galapagos NV, priority 2015, dated 2019).

How the values were obtained:
Assay type in all cases: in vivo, human
[1] = system: RA patients; test: Paraoxonase assay (PON1), Study 4; conditions: for PON1 level, 4 weeks CFB: 4 weeks change from baseline
Description: (§1) Randomized double-blind, placebo-controlled add on study in subjects with active RA who have an inadequate response to MTX monotherapy, in combination with methotrexate, administered for 4 weeks in the treatment of subjects with active rheumatoid arthritis who have an inadequate response to methotrexate alone.
(§2) Compound 1 (dosed as a [Compound 1:HCl:3H2O]) capsules administered orally in 30 mg, 75 mg, 150 mg, or 300 mg doses per day for 4 weeks.
Paraoxanases are involved, in particular PON1 have a role in preventing atherosclerosis.
The PON assay is performed according to published protocol by Mackness et al. (Mackness et al., 2003).

[2] = system: RA patients; test: Plasma Lecithin-Cholesterol Acyltransferase (LCAT) activity, Study 4; conditions: for LCAT level, 4 weeks CFB: 4 weeks change from baseline
Description: as §1, §2
LCAT activity was determined using a commercial available assay from Roar Biomedical. In short; incubation media contained 0.5 μL substrate reagent, 4 μL plasma in a final volume of 100 μL assay buffer. Incubations were performed for 1 h at 37° C. in a microtiter plate. Hereafter 200 μL READ reagent was added to the wells and after mixing, 200 μL was transferred to a black fluorescence compatible microplate. The plate was read at 340 nm excitation, 390 nm and 450 nm emission. LCAT activity was expressed as a ratio of the emission at 390 nm and 450 nm. These two wavelengths represent the LCAT substrate hydrolysed and not hydrolysed. An increase in the ratio indicates increased LCAT activity. Catalogue number RB-LCAT, Lot number used 13581392.

[3] = system: RA patients; test: ApoA-I level (Selectra autoanalyzer), Study 4; conditions: for ApoA-I level, 4 weeks CFB: 4 weeks change from baseline
Description: as §1, §2
ApoAI, and ApoB were measured on the Selectra autoanalyzer (Sopachem BV, 44-RI Straat 33, 4051 AP Ochten, The Netherlands). All assays were commercially available from DiaSys Diagnostic Systems GmbH, Alte Strasse 9, 65558 Holzheim, Germany.

O=C(Nc1nc2cccc(-c3ccc(CN4CCS(=O)(=O)CC4)cc3)n2n1)C1CC1 [Compound 1, cyclopropanecarboxylic acid {5-[4-(1,1-dioxo-thiomorpholin-4-ylmethyl)-phenyl]-[1,2,4]triazolo[1,5-a]pyridin-2yl}-amide]
PON1 level, 4 weeks CFB ([1]; 30 mg q.d.): 4.2% | PON1 level, 4 weeks CFB ([1]; 75 mg q.d.): 11.2% | PON1 level, Baseline ([1]; 75 mg q.d.): 69.3 ng/mL | PON1 level, week 4 ([1]; 75 mg q.d.): 73.7 ng/mL | PON1 level, 4 weeks CFB ([1]; 150 mg q.d.): 43.4% | PON1 level, Baseline ([1]; 150 mg q.d.): 52.5 ng/mL | PON1 level, week 4 ([1]; 150 mg q.d.): 70.6 ng/mL | PON1 level, 4 weeks CFB ([1]; 300 mg q.d.): 31.0% | PON1 level, week 4 ([1]; 300 mg q.d.): 77.5 ng/mL | LCAT level, 4 weeks CFB ([2]; 30 mg q.d.): 0.4% | LCAT activity (emission ratio) ([2]; 30 mg q.d., baseline): 1.9 | LCAT activity (emission ratio) ([2]; 30 mg q.d., week 4): 2 | LCAT level, 4 weeks CFB ([2]; 75 mg q.d.): 4.2% | LCAT activity (emission ratio) ([2]; 75 mg q.d., baseline): 2 | LCAT activity (emission ratio) ([2]; 75 mg q.d., week 4): 2.1 | LCAT level, 4 weeks CFB ([2]; 150 mg q.d.): 2.9% | LCAT activity (emission ratio) ([2]; 150 mg q.d., baseline): 1.9 | LCAT activity (emission ratio) ([2]; 150 mg q.d., week 4): 1.9 | LCAT level, 4 weeks CFB ([2]; 300 mg q.d.): 4.4% | LCAT activity (emission ratio) ([2]; 300 mg q.d., baseline): 2 | LCAT activity (emission ratio) ([2]; 300 mg q.d., week 4): 2.1 | ApoA-I level, 4 weeks CFB ([3]; 30 mg q.d.): 5.2% | ApoA-I level, Baseline ([3]; 30 mg q.d.): 148 mg/dL | ApoA-I level, week 4 ([3]; 30 mg q.d.): 155 mg/dL | ApoA-I level, 4 weeks CFB ([3]; 75 mg q.d.): 9.8% | ApoA-I level, Baseline ([3]; 75 mg q.d.): 142 mg/dL | ApoA-I level, week 4 ([3]; 75 mg q.d.): 156 mg/dL | ApoA-I level, 4 weeks CFB ([3]; 150 mg q.d.): 5.5% | ApoA-I level, Baseline ([3]; 150 mg q.d.): 140 mg/dL | ApoA-I level, week 4 ([3]; 150 mg q.d.): 147 mg/dL | ApoA-I level, 4 weeks CFB ([3]; 300 mg q.d.): 27.9% | ApoA-I level, Baseline ([3]; 300 mg q.d.): 143 mg/dL | ApoA-I level, week 4 ([3]; 300 mg q.d.): 179 mg/dL
